Reference: publication PMC9870890 (Nature Communications, 2023)
Changes are numbered by the printed parent chain. Values joined by “and” are separate entries in the source; they are usually repeats but may differ in a detail not shown here. Identical values can stand only once.

How the values were obtained:
M2R = biological target: T1, M2R (Homo sapiens, UniProt P08172); experiment: biochemical; format: binding; design: expressed in transfected cells
T1 sequence (P08172 1-466): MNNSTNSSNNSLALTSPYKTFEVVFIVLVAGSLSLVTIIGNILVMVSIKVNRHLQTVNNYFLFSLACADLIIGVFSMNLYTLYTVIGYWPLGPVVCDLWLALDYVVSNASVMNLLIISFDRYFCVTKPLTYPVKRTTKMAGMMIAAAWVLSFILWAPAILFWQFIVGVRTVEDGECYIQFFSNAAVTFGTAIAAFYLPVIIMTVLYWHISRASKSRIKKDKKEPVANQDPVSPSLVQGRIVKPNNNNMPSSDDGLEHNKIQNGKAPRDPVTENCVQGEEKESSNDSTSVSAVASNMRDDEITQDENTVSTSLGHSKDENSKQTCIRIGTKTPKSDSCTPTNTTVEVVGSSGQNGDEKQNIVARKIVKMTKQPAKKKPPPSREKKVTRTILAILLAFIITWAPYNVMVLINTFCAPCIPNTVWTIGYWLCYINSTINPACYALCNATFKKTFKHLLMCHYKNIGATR
Procedure: Purified M2R receptor was reconstituted into high-density lipoprotein (HDL) particles constituting apolipoprotein A1(APOA1) and mixture of POPG: POPC lipids with 3:2 (mol:mol)ratio as previously described. […] Membranes or HDL particles were separated from excess [^3H]-NMS by Whatman GF/B filters using a Brandel 48-well harvester. The bound radioligand were read on a liquid scintillation counter (MicroBeta Jet, PerkinElmer). Data were analyzed by GraphPad Prism 9.2.0.

M2R and GoA = biological target: T2, M2R and GoA (Homo sapiens, UniProt P08172); experiment: GTPase-Glo assay (GTP turnover) with purified M2R and GoA; format: biochemical; conditions: for Residual GTP (%): 90 min, normalized to GoA alone; for GTP-turnover, Fig. 1c (GTPase-Glo luminescence): 100 μM ACh or 10 μM Ixo, M2R-GoA
T2 construct: FLAG (N); 8xHis (C); made in house; host or cells: Sf9 insect cells (receptor)
Procedure: The receptors for GTPase-Glo^TM assay were expressed and purified as described above and frozen at −80 °C before use. […] The GTPase reaction was incubated at room temperature (22–25 °C) for different times (15–90 min). […] After incubation, 5 μL reconstituted 1xGTPase-Glo^TM Reagent (Promega) was added to the completed GTPase reaction, mixed briefly and incubated with shaking for 30 min at room temperature (22–25 °C) to convert the remaining GTP into ATP. Then 10 μL Detection Reagent (Promega) was added to the system and incubated for 5-10 min at room temperature (22–25 °C) to convert the ATP into luminescent signals. Luminescence intensity was quantified using a Multimode Plate Reader (PerkinElmer) luminescence counter.

M2R L129^34.51A mutant = biological target: T3, M2R L129^34.51A mutant (Homo sapiens, UniProt P08172, L129A); experiment: NanoBiT-GoA dissociation assay, L129A mutant M2R
T3 sequence (P08172 1-466 L129A): T1 sequence (P08172 1-466) with L129A
Procedure: Plasmid transfection for HEK293A cells (Thermo Fisher Scientific) was performed by combining 25 µl (volume is per 10-cm culture dish) of polyethylenimine solution (1 mg/mL) and a mixture of plasmids each encoding the large fragment (LgBiT)-containing the GαoA subunit (500 ng), the small fragment (SmBiT)-fused Gγ2 subunit with the C68S mutation (2.5 µg) and the untagged Gβ1 subunit (2.5 µg), along with a human, wild-type M2R (1 µg; containing N-terminal HA-derived signal sequence followed by the FLAG-epitope tag). After an incubation for one day, the transfected cells were harvested, pelleted with centrifugation, and suspended in 9 ml of Hank’s balanced saline solution (HBSS) containing 0.01% bovine serum albumin (BSA fatty acid–free grade, SERVA) and 5 mM HEPES (pH 7.4) (assay buffer). The cell suspension was dispensed in a white 96-well plate at a volume of 70 µl per well and mixed with 20 µl of 50 µM coelenterazine (Carbosynth) diluted in the assay buffer. […] Kinetics data points from 5 min to 10 min were averaged and normalized to the initial count and used as a G-protein dissociation index. For the mutant study, the cell culture and the transfection mixture were scaled down to a 6-cm dish (4 ml culture media) and the transfected cells were suspended in 4 ml of the assay buffer and seeded in the 96-well plate at a volume of 80 µL. The G-protein dissociation signals were fitted to a four-parameter sigmoidal concentration-response curve (GraphPad Prism8). For each experiment, we calculated Emax by normalizing Span to the LY2119620-free condition and ∆pEC50 by subtracting pEC50 of the LY2119620-free condition performed in parallel and used the values to denote allosteric modulator activity. Similarly, for the mutant study, we calculated ∆pEC50 by subtracting pEC50 of the WT (1:1) condition performed in parallel.

human, wild-type M2R = biological target: T4, human, wild-type M2R (Homo sapiens, UniProt P08172); experiment: NanoBiT-G-protein (GoA) dissociation assay, wild-type M2R, HEK293A cells; format: cell-based; conditions: for NanoBiT-GoA dissociation signal, Mean (Veh = 1.000): n = 4
T4 construct: expressed in transfected cells; host or cells: HEK293A
T4 sequence (P08172 1-466): T1 sequence (P08172 1-466)
Procedure: Plasmid transfection for HEK293A cells (Thermo Fisher Scientific) was performed by combining 25 µl (volume is per 10-cm culture dish) of polyethylenimine solution (1 mg/mL) and a mixture of plasmids each encoding the large fragment (LgBiT)-containing the GαoA subunit (500 ng), the small fragment (SmBiT)-fused Gγ2 subunit with the C68S mutation (2.5 µg) and the untagged Gβ1 subunit (2.5 µg), along with a human, wild-type M2R (1 µg; containing N-terminal HA-derived signal sequence followed by the FLAG-epitope tag). After an incubation for one day, the transfected cells were harvested, pelleted with centrifugation, and suspended in 9 ml of Hank’s balanced saline solution (HBSS) containing 0.01% bovine serum albumin (BSA fatty acid–free grade, SERVA) and 5 mM HEPES (pH 7.4) (assay buffer). The cell suspension was dispensed in a white 96-well plate at a volume of 70 µl per well and mixed with 20 µl of 50 µM coelenterazine (Carbosynth) diluted in the assay buffer. After 2 h incubation at room temperature, the plate was measured for baseline luminescence (SpectraMax L, Molecular Devices) and 10 µl of titrated concentrations of LY2119620 diluted in the assay buffer were added. […] Kinetics data points from 5 min to 10 min were averaged and normalized to the initial count and used as a G-protein dissociation index. […] The G-protein dissociation signals were fitted to a four-parameter sigmoidal concentration-response curve (GraphPad Prism8). For each experiment, we calculated Emax by normalizing Span to the LY2119620-free condition and ∆pEC50 by subtracting pEC50 of the LY2119620-free condition performed in parallel and used the values to denote allosteric modulator activity.

Mock = experiment: NanoBiT-GoA dissociation assay, Mock-transfected cells (control); format: cell-based

T2 sequence (P59768 2-68, one chain of several): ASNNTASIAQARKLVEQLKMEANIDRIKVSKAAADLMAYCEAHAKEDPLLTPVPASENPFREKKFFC
T2 sequence (P09471 2-354, one chain of several, further chain): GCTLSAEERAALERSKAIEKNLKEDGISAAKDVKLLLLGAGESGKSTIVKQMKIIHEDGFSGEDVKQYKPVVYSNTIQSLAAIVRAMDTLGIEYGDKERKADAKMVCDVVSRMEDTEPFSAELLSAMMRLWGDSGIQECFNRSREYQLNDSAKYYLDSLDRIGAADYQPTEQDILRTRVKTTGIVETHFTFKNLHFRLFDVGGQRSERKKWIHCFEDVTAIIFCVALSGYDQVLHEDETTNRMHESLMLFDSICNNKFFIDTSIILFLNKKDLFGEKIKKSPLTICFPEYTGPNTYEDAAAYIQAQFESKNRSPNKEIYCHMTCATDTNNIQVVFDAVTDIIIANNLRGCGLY
T2 sequence (P62873 whole entry, one chain of several, further chain): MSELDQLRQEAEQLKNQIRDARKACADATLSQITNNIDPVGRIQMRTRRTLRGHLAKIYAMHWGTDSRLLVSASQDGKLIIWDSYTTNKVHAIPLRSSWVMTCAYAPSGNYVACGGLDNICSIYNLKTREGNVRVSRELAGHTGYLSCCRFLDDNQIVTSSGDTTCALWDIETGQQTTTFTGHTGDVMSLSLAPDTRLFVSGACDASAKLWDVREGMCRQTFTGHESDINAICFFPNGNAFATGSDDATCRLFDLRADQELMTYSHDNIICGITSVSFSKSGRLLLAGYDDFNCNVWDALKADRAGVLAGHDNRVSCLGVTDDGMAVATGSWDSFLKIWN

## CC(=O)OCC[N+](C)(C)C [ACh, acetylcholine]
M2R; M2R in HDL particles
  increase of affinity on addition of GoA: ~ 65 fold
M2R; log[M] -4, without GoA
  competition curve data, Fig. 1b ([3H]-NMS binding): 5.782 and 5.65 and 7.077
M2R; log[M] -5, +GoA
  competition curve data, Fig. 1b ([3H]-NMS binding): 8.6818 and 10.1951 and 7.089
M2R; log[M] -5, without GoA
  competition curve data, Fig. 1b ([3H]-NMS binding): 30.6813 and 33.2587 and 33.4266
M2R; log[M] -6, +GoA
  competition curve data, Fig. 1b ([3H]-NMS binding): 19.1734 and 19.6734 and 19.2354
M2R; log[M] -6, without GoA
  competition curve data, Fig. 1b ([3H]-NMS binding): 75.6364 and 71.4046
M2R; log[M] -7, +GoA
  competition curve data, Fig. 1b ([3H]-NMS binding): 35.8423 and 48.5862 and 43.4886
M2R; log[M] -7, without GoA
  competition curve data, Fig. 1b ([3H]-NMS binding): 93.5585 and 94.8412 and 97.6703
M2R; log[M] -8, +GoA
  competition curve data, Fig. 1b ([3H]-NMS binding): 63.401 and 72.72 and 79.9283
M2R; log[M] -8, without GoA
  competition curve data, Fig. 1b ([3H]-NMS binding): 87.5165 and 90.6813 and 92.0839
M2R; log[M] -9, +GoA
  competition curve data, Fig. 1b ([3H]-NMS binding): 85.6233 and 86.2605 and 91.0793
M2R; log[M] -9, without GoA
  competition curve data, Fig. 1b ([3H]-NMS binding): 98.6534 and 93.3786 and 102.25
M2R; log[M] -10, +GoA
  competition curve data, Fig. 1b ([3H]-NMS binding): 98.2875 and 107.686 and 94.0263
M2R; log[M] -10, without GoA
  competition curve data, Fig. 1b ([3H]-NMS binding): 99.5165 and 100.667 and 99.8162
M2R; purified M2R reconstituted in HDL particles
  binding affinity lower than Ixo: ~ 90 fold
M2R and GoA; +DMSO
  Residual GTP (%): 45.3131% and 35.9349% and 31.3573% and 30.3217%
M2R and GoA; +LY2119620 (100 μM)
  Residual GTP (%): 63.4937% and 52.5673% and 44.2408% and 50.614% and 40.1818%
M2R and GoA; agonist-bound M2R
  GTP turnover rate and efficacy: much lower GTP turnover rate and efficacy than Ixo-bound M2R
M2R and GoA; time 15 min
  GTP-turnover, Fig. 1c (GTPase-Glo luminescence): 580068 and 653066 and 555333 and 703107
M2R and GoA; time 30 min
  GTP-turnover, Fig. 1c (GTPase-Glo luminescence): 338018 and 388059 and 371258 and 437553
M2R and GoA; time 45 min
  GTP-turnover, Fig. 1c (GTPase-Glo luminescence): 365372 and 350617 and 319511 and 370440
M2R and GoA; time 60 min
  GTP-turnover, Fig. 1c (GTPase-Glo luminescence): 469821 and 332109 and 488525 and 361230
M2R and GoA; time 90 min
  GTP-turnover, Fig. 1c (GTPase-Glo luminescence): 354237 and 250414 and 339305 and 252170
M2R L129^34.51A mutant
  ∆pEC50: -0.530 and -0.558 and -0.440
M2R L129^34.51A mutant; ACh Log [M] -4, n = 3
  NanoBiT-GoA dissociation signal, Mean (Veh = 1.000): 0.350
M2R L129^34.51A mutant; ACh Log [M] -5, n = 3
  NanoBiT-GoA dissociation signal, Mean (Veh = 1.000): 0.368
M2R L129^34.51A mutant; ACh Log [M] -6, n = 3
  NanoBiT-GoA dissociation signal, Mean (Veh = 1.000): 0.470
M2R L129^34.51A mutant; ACh Log [M] -8, n = 3
  NanoBiT-GoA dissociation signal, Mean (Veh = 1.000): 0.926
M2R L129^34.51A mutant; ACh Log [M] -9, n = 3
  NanoBiT-GoA dissociation signal, Mean (Veh = 1.000): 0.991
M2R L129^34.51A mutant; ACh Log [M] -10, n = 3
  NanoBiT-GoA dissociation signal, Mean (Veh = 1.000): 0.994
human, wild-type M2R; WT (1:1), reference
  ∆pEC50: 0.000
human, wild-type M2R; WT (1:1), ACh Log [M] -4
  NanoBiT-GoA dissociation signal, Mean (Veh = 1.000): 0.337
human, wild-type M2R; WT (1:1), ACh Log [M] -5
  NanoBiT-GoA dissociation signal, Mean (Veh = 1.000): 0.351
human, wild-type M2R; WT (1:1), ACh Log [M] -6
  NanoBiT-GoA dissociation signal, Mean (Veh = 1.000): 0.394
human, wild-type M2R; WT (1:1), ACh Log [M] -7
  NanoBiT-GoA dissociation signal, Mean (Veh = 1.000): 0.558
human, wild-type M2R; WT (1:1), ACh Log [M] -8
  NanoBiT-GoA dissociation signal, Mean (Veh = 1.000): 0.840
human, wild-type M2R; WT (1:1), ACh Log [M] -9
  NanoBiT-GoA dissociation signal, Mean (Veh = 1.000): 0.978
human, wild-type M2R; WT (1:2)
  ∆pEC50: -0.277 and -0.205 and -0.364 and -0.275
human, wild-type M2R; WT (1:2), ACh Log [M] -4
  NanoBiT-GoA dissociation signal, Mean (Veh = 1.000): 0.345
human, wild-type M2R; WT (1:2), ACh Log [M] -5
  NanoBiT-GoA dissociation signal, Mean (Veh = 1.000): 0.355
human, wild-type M2R; WT (1:2), ACh Log [M] -6
  NanoBiT-GoA dissociation signal, Mean (Veh = 1.000): 0.427
human, wild-type M2R; WT (1:2), ACh Log [M] -7
  NanoBiT-GoA dissociation signal, Mean (Veh = 1.000): 0.636
human, wild-type M2R; WT (1:2), ACh Log [M] -8
  NanoBiT-GoA dissociation signal, Mean (Veh = 1.000): 0.898
human, wild-type M2R; WT (1:2), ACh Log [M] -9
  NanoBiT-GoA dissociation signal, Mean (Veh = 1.000): 0.988
Mock; ACh Log [M] -4, n = 3
  NanoBiT-GoA dissociation signal, Mean (Veh = 1.000): 0.999
Mock; ACh Log [M] -5, n = 3
  NanoBiT-GoA dissociation signal, Mean (Veh = 1.000): 0.997
Mock; ACh Log [M] -6, n = 3
  NanoBiT-GoA dissociation signal, Mean (Veh = 1.000): 0.997
Mock; ACh Log [M] -7, n = 3
  NanoBiT-GoA dissociation signal, Mean (Veh = 1.000): 0.998
Mock; ACh Log [M] -8, n = 3
  NanoBiT-GoA dissociation signal, Mean (Veh = 1.000): 1.007
Mock; ACh Log [M] -9, n = 3
  NanoBiT-GoA dissociation signal, Mean (Veh = 1.000): 1.008
Mock; ACh Log [M] -10, n = 3
  NanoBiT-GoA dissociation signal, Mean (Veh = 1.000): 1.011
